As a reminder, the EC50 is the midpoint of the concentration-response curve. A lower EC50 goes with an effect from little substance.

Where two headings read alike, the source gives them in different places.

The text below walks through data of article PMC12389355, “Physiologically Based Pharmacokinetic Modeling to Assess Perpetrator and Victim Cytochrome P450 2C Induction Risk” (Pharmaceutics, 2025).

The test system of data set [1] is CYP2B6. The experiment in a line: in vitro. Particulars: human.
The subject of data set [2] is CYP2C19. As to the kind of experiment: in vitro. Particulars: human.
Data set [3] relates to CYP2C8. As to the kind of experiment: in vitro. Particulars: human.
Data set [4] relates to CYP2B6. The experiment in a line: CYP2B6 mRNA induction in HTC model.
In data set [5] the test system is CYP2C8. As to the kind of experiment: CYP2C8 mRNA induction in HTC model.
In data set [6] the test system is CYP2C9. The experiment in a line: CYP2C9 enzyme activity induction in HTC model (diclofenac 4-hydroxylation).
The subject of data set [7] is CYP3A4. As to the kind of experiment: CYP3A4 mRNA induction in human hepatocyte triculture (HTC) model.
Data set [8] relates to CYP2C19. The experiment in a line: CYP2C19 enzyme activity induction in HTC model (omeprazole 5-hydroxylation).
Data set [9] relates to CYP2C9. The experiment in a line: in vitro. Particulars: human, probe diclofenac (4-hydroxy diclofenac formation).
Data set [10] has as its system CYP2C19. The experiment in a line: CYP2C19 mRNA induction in HTC model.
The test system of data set [11] is CYP2C9. As to the kind of experiment: CYP2C9 mRNA induction in HTC model.
Data set [12] deals with CYP2C9. The experiment in a line: in vitro. Particulars: human.
For data set [13], the system named is CYP3A4. The experiment in a line: CYP3A4 enzyme activity induction in HTC model (midazolam 1-hydroxylation).
The conditions of data set [14]: cited from earlier work.
Data set [15] concerns CYP2C19. Particulars: cited from earlier work.
Data set [16] relates to CYP3A4. Particulars: cited from earlier work; for fm CYP3A4: victim drug, References of Tables 3 and 4 ([27]-[44]).
The test system of data set [17] is CYP2C8. Also noted: method as in References column of Tables 3 and 4 ([27]-[44]). Particulars: victim drug; References of Tables 3 and 4 ([27]-[44]); cited from earlier work.
In data set [18] the test system is CYP2C8. Also noted: method as in PMID 29802934. Particulars: PHH spheroids; cited from earlier work.
Data set [19] concerns CYP2C19. More on the design: method as in PMID 26658225. Particulars: PHH spheroids, observed in two of the three donors; cited from earlier work.
The subject of data set [20] is CYP2B6. More on the design: method as in PMID 29802934. Particulars: PHH spheroids; cited from earlier work.
For data set [21], the system named is CYP2C9. Particulars: cited from earlier work.
Data set [22] concerns CYP2B6. Particulars: cited from earlier work.
The test system of a further data set is CYP1A2. Particulars: cited from earlier work.
[23] abbreviates: Donor 1, nominal concentrations, 96 h.
Setting [24] is: victim drug after administration with rifampicin, References of Table 4 ([27]-[43]), DIDB.
[25] abbreviates: victim drug, References of Tables 3 and 4 ([27]-[44]).

For `CNC(=O)c1ccc(N2C(=S)N(c3cnc(C#N)c(C(F)(F)F)c3)C(=O)C23CCC3)cc1F` [Apalutamide, apalutamide], the EC50 at 96 h in the data set on CYP2B6 [1] is […]; in the data set with CYP2C19 [2] it was […]; in the data set on CYP2C8 [3] it was […]; in the data set on CYP2C9 [9], […]; in the data set on CYP2C9 [12], 0.794 µM. Moreover, the “Emax Fold” value in the data set with CYP2B6 [4] (Donor 1) stood at […]; in the data set on CYP2B6 [4] (Donor 2), […]; with CYP2B6 [4] (Donor 3), […]; with CYP2C8 [5] (Donor 1) it was […]; with CYP2C8 [5] (Donor 2), […]; in the data set with CYP2C8 [5] (Donor 3), […]. In addition, the “Emax Fold” value in the data set with CYP2C9 [6] (Donor 1) was […]; with CYP2C9 [6] (Donor 2) it was […]; in the data set on CYP2C9 [6] (Donor 3) it was […]; in the data set with CYP3A4 [7] (Donor 1) it was […]; in the data set with CYP3A4 [7] (Donor 2), […]; in the data set with CYP3A4 [7] (Donor 3), […]. Moreover, the “Emax Fold” value came out at […] in the data set with CYP2C19 [8] (Donor 1); […] with CYP2C19 [8] (Donor 2); […] with CYP2C19 [8] (Donor 3); […] with CYP2C19 [10] (Donor 1); […] with CYP2C19 [10] (Donor 2); […] in the data set with CYP2C19 [10] (Donor 3). The “Emax Fold” value turned out to be […] with CYP2C9 [11] (Donor 1); […] in the data set with CYP2C9 [11] (Donor 2); […] in the data set on CYP2C9 [11] (Donor 3); […] in the data set with CYP3A4 [13] (Donor 1); […] in the data set on CYP3A4 [13] (Donor 2); […] in the data set with CYP3A4 [13] (Donor 3). Also, the EC50 was 2.98 µM with CYP2B6 [4] (Donor 2); […] with CYP2B6 [4] (Donor 3); […] with CYP2C8 [5] (Donor 2); […] in the data set on CYP2C8 [5] (Donor 3); 23.7 µM in the data set on CYP2C9 [6] (Donor 3); […] in the data set on CYP3A4 [7] (setting [23]). In addition, the 50% effective concentration (EC50) turned out to be […] in the data set on CYP3A4 [7] (Donor 2); […] in the data set with CYP3A4 [7] (Donor 3); […] with CYP2C19 [8] (Donor 1); 1.03 µM in the data set with CYP2C19 [8] (Donor 2); […] with CYP2C19 [8] (Donor 3); 5.22 µM with CYP2C19 [10] (Donor 2). For the same compound, the EC50 turned out to be […] in the data set with CYP2C19 [10] (Donor 3); 0.419 µM in the data set on CYP2C9 [11] (Donor 2); 0.474 µM in the data set with CYP2C9 [11] (Donor 3); […] with CYP3A4 [13] (Donor 1); […] in the data set with CYP3A4 [13] (Donor 2); […] with CYP3A4 [13] (Donor 3). Besides, the “fold-induction (Emax)” value with CYP2B6 [4] (range across three donors) is reported as […]; with CYP2C8 [5] (range across three donors), […]; with CYP3A4 [7] (range across three donors), […]; with CYP2C9 [11] (range across three donors) it was […].

Take `CC(NC(C)(C)C)C(=O)c1cccc(Cl)c1` (centres unmarked) [Bupropion, bupropion]: the “% AUC Reduction (Clinically Observed)” value in data set [14] (setting [24]) is 67.2%.

For `NC(=O)N1c2ccccc2C=Cc2ccccc21` [Carbamazepine, carbamazepine], the EC50 at 96 h came to 46.9 µM in the data set on CYP2B6 [1], 124 µM in the data set on CYP2C19 [2], […] in the data set with CYP2C9 [9] and […] in the data set with CYP2C9 [12]. The “Emax Fold” value in the data set with CYP2B6 [4] (Donor 1) is listed as […]; in the data set on CYP2B6 [4] (Donor 3), […]; with CYP2C8 [5] (Donor 1) it was […]; in the data set with CYP2C8 [5] (Donor 2), […]; in the data set on CYP2C8 [5] (Donor 3), […]; in the data set on CYP2C9 [6] (Donor 1), […]. Further, the “Emax Fold” value in the data set on CYP2C9 [6] (Donor 2) is […]; in the data set on CYP2C9 [6] (Donor 3), […]; in the data set with CYP3A4 [7] (Donor 1) it was […]; with CYP3A4 [7] (Donor 2) it was […]; with CYP3A4 [7] (Donor 3) it was […]; in the data set with CYP2C19 [10] (Donor 1) it was […]. Besides, the “Emax Fold” value in the data set with CYP2C19 [10] (Donor 3) is […]; in the data set with CYP2C9 [11] (Donor 1), […]; with CYP2C9 [11] (Donor 2) it was […]; in the data set on CYP2C9 [11] (Donor 3), […]; in the data set with CYP3A4 [13] (Donor 1), […]; in the data set with CYP3A4 [13] (Donor 2) it was […]. The EC50 in the data set on CYP2B6 [4] (Donor 2) is […]; in the data set on CYP2B6 [4] (Donor 3), […]; with CYP2C8 [5] (Donor 1), […]; in the data set with CYP2C8 [5] (Donor 2), […]; in the data set on CYP2C8 [5] (Donor 3), 40.2 µM; in the data set with CYP3A4 [7] (setting [23]), […]. Also, the EC50 turned out to be […] in the data set on CYP3A4 [7] (Donor 2); […] in the data set with CYP3A4 [7] (Donor 3); […] in the data set with CYP2C19 [8] (Donor 1); 2.05 µM in the data set with CYP2C19 [8] (Donor 2); […] in the data set on CYP2C19 [8] (Donor 3); 186 µM with CYP2C19 [10] (Donor 2). Further, the EC50 in the data set with CYP2C19 [10] (Donor 3) is […]; in the data set on CYP3A4 [13] (Donor 1), […]; in the data set on CYP3A4 [13] (Donor 2), […]; in the data set on CYP3A4 [13] (Donor 3), […].

`COc1ccc(Cl)cc1C(=O)NCCc1ccc(S(=O)(=O)NC(=O)NC2CCCCC2)cc1` [Glyburide, glyburide]: in data set [14] (setting [24]), the “% AUC Reduction (Clinically Observed)” value is reported as 38.9%.

For the compound `Cc1ncc2n1-c1ccc(Cl)cc1C(c1ccccc1F)=NC2` [Midazolam, midazolam], the “% AUC Reduction (Clinically Observed)” value in data set [14] (in vivo) is 94.7%.

Turning to `COc1ccc2[nH]c([S+]([O-])Cc3ncc(C)c(OC)c3C)nc2c1` (centres unmarked) [Omeprazole, omeprazole], the “fm CYP2C19” value in the data set with CYP2C19 [15] (setting [25]) is given as 0.68. The “% AUC Reduction (Clinically Observed)” value in data set [14] (setting [24]) is 86.1%. Further, the “fm CYP3A4” value in the data set on CYP3A4 [16] is recorded as 0.32.

Turning to `CCc1ccc(CCOc2ccc(CC3SC(=O)NC3=O)cc2)nc1` (centres unmarked) [Pioglitazone, pioglitazone], in the data set on CYP2C8 [17], the “fm CYP2C8” value is on record as 0.56. Further, the “% AUC Reduction (Clinically Observed)” value in data set [14] (setting [24]) is recorded as 56.3%. Further, the “fm CYP3A4” value in the data set with CYP3A4 [16] is 0.37.

`CCOc1cc(CC(=O)N[C@@H](CC(C)C)c2ccccc2N2CCCCC2)ccc1C(=O)O` [Repaglinide, repaglinide]: the “fm CYP2C8” value with CYP2C8 [17] is reported as 0.26. The “% AUC Reduction (Clinically Observed)” value in [14] (setting [24]) is given as 57.5%. Also, the “fm CYP3A4” value with CYP3A4 [16] is on record as 0.74.

In the case of `CO[C@H]1/C=C/O[C@@]2(C)Oc3c(C)c(O)c4c(O)c(c(/C=N/N5CCN(C)CC5)c(O)c4c3C2=O)NC(=O)/C(C)=C\C=C\[C@H](C)[C@H](O)[C@@H](C)[C@@H](O)[C@@H](C)[C@H](OC(C)=O)[C@@H]1C` [Rifampicin, rifampicin], the EC50 at 96 h in the data set with CYP2B6 [1] (both) was 0.399 to 0.53 µM; in the data set on CYP2B6 [1], 0.415 µM; in the data set on CYP2C19 [2] (both) it was 0.803 to 1.64 µM; in the data set with CYP2C8 [3] (both) it was 0.26 to 0.504 µM. For the same compound, the “induction of CYP2C8 mRNA levels” value in the data set on CYP2C8 [18] is 12 fold. In addition, the CYP2C19 induction with CYP2C19 [19] was 8 fold. Moreover, the EC50 worked out at 0.53 µM in the data set with CYP2B6 [4] (Donor 2); 0.399 µM in the data set with CYP2B6 [4] (Donor 3); 0.26 µM in the data set with CYP2C8 [5] (Donor 2); 0.307 µM in the data set on CYP2C8 [5] (Donor 3); 1.64 µM in the data set with CYP2C19 [10] (Donor 1); 0.803 µM in the data set on CYP2C19 [10] (Donor 2). In the data set with CYP2C19 [10] (Donor 3), this compound returned an EC50 of 1.47 µM. Also, the “induction of CYP2B6 mRNA levels” value with CYP2B6 [20] is given as 9 fold.

With `CC(=O)C[C@@H](c1ccccc1)c1c(O)c2ccccc2oc1=O` [S-warfarin], the “fm via CYP2C9” value with CYP2C9 [21] is reported as 0.64. In the data set with CYP2B6 [22], the “fm via CYP2B6” value is listed as 0.12. In addition, the “fm via CYP3A4” value in the data set on CYP3A4 [16] is 0.05.

As to `CC(=O)CC(c1ccccc1)c1c(O)c2ccccc2oc1=O` (centres unmarked) [Warfarin, warfarin], the “fm CYP2C9” value with CYP2C9 [21] (setting [25]) was 0.64.

Take `COC(=O)[C@H](c1ccccc1Cl)N1CCc2sccc2C1` [clopidogrel]: in the data set on CYP2C19 [15], the “fm via CYP2C19” value is recorded as 0.19. Further, the “fm via CYP1A2” value in the data set with CYP1A2 is listed as 0.02. Further, the “fm via CYP2B6” value in the data set with CYP2B6 [22] was 0.06.
